Assay results from PubChem BioAssay AID248 (DTP/NCI, 2004).
Inconclusive results and toxic doses are left out. Rule as the data show it: active = T/C of 150% or more; inactive = T/C below 125%. Square brackets hold non-standard residues; d marks the D form. Peptide text beside a SMILES is read from it. * marks the point of attachment. Cbz = O=C(OCc1ccccc1)*; OBn = c1ccc(CO*)cc1; Sar = CNCC(=O)O

Test system: L1210 leukemia ip in BDF1 mice, survival T/C
Experiment: NCI In Vivo Anticancer Drug Screen. Data for tumor model L1210 Leukemia (intraperitoneal) in B6D2F1 (BDF1) mice
Settings: endpoint: mean survival time, higher = longer survival
Outline: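 Value reflects the ratio of survival in compound-treated mice to survival in vehicle-treated controls, with both groups carrying the same transplanted tumor.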

[1] = dose: 100.0 mg/kg/injection, schedule: Q04DX003 (ip), vehicle: saline with Tween-80
[2] = dose: 200.0 mg/kg/injection, schedule: Q04DX003 (ip), vehicle: saline with Tween-80
[3] = dose: 400.0 mg/kg/injection, schedule: Q04DX003 (ip), vehicle: saline with Tween-80
[4] = dose: 100.0 mg/kg/injection, schedule: Q01DX009 (ip), vehicle: Klucel (hydroxypropylcellulose) (HPC)
[5] = dose: 100.0 mg/kg/injection, schedule: Q04DX003 (ip), vehicle: Klucel (hydroxypropylcellulose) (HPC)
[6] = dose: 200.0 mg/kg/injection, schedule: Q04DX003 (ip), vehicle: Klucel (hydroxypropylcellulose) (HPC)
[7] = dose: 400.0 mg/kg/injection, schedule: Q04DX003 (ip), vehicle: Klucel (hydroxypropylcellulose) (HPC)
[8] = dose: 100.0 mg/kg/injection, schedule: Q01DX009 (ip), vehicle: saline with Tween-80
[9] = dose: 50.0 mg/kg/injection, schedule: Q01DX001 (ip), vehicle: saline
[10] = dose: 100.0 mg/kg/injection, schedule: Q01DX001 (ip), vehicle: saline
[11] = dose: 200.0 mg/kg/injection, schedule: Q01DX001 (ip), vehicle: saline
[12] = dose: 400.0 mg/kg/injection, schedule: Q01DX001 (ip), vehicle: saline

Measured: T/C

O=C(NC(CSCc1ccccc1)C(=O)Oc1ccc([N+](=O)[O-])cc1)OCc1ccccc1 (stereo unspecified)
inactive: dose: 12.0 mg/kg/injection, schedule: Q01DX009 (ip), vehicle: gum acacia 91 % of control | dose: 25.0 mg/kg/injection, schedule: Q01DX009 (ip), vehicle: gum acacia 111 % of control | dose: 25.0 mg/kg/injection, schedule: Q04DX003 (ip), vehicle: gum acacia 91 % of control | dose: 50.0 mg/kg/injection, schedule: Q01DX009 (ip), vehicle: gum acacia 87 % of control | dose: 50.0 mg/kg/injection, schedule: Q04DX003 (ip), vehicle: gum acacia 88 % of control | dose: 100.0 mg/kg/injection, schedule: Q04DX003 (ip), vehicle: gum acacia 92 % of control

CC(NC(=O)OCc1ccccc1)C(=O)NC(CCC(=O)OCc1ccccc1)C(=O)OCc1ccccc1 (stereo unspecified)
inactive: [1] 93 % of control | [2] 92 % of control | [3] 92 % of control

CCCNC(=O)C1C2C=CC(CC2)C1C(=O)NCCC (stereo unspecified)
inactive: [1] 92 % of control | [2] 100 % of control | [3] 96 % of control

c1ccc(COc2ccc(Nc3ccccc3)cc2)cc1
inactive: [4] 98 % of control | [5] 106 % of control | dose: 200.0 mg/kg/injection, schedule: Q01DX009 (ip), vehicle: Klucel (hydroxypropylcellulose) (HPC) 100 % of control | [6] 103 % of control | dose: 400.0 mg/kg/injection, schedule: Q01DX009 (ip), vehicle: Klucel (hydroxypropylcellulose) (HPC) 102 % of control | [7] 94 % of control

CCOC(=O)COc1ccc(Cl)cc1C(=O)OCC
inactive: dose: 100.0 mg/kg/injection, schedule: Q04DX002 (sc), vehicle: olive oil, sesame oil, peanut oil 105 % of control | dose: 200.0 mg/kg/injection, schedule: Q04DX002 (sc), vehicle: olive oil, sesame oil, peanut oil 118 % of control | dose: 400.0 mg/kg/injection, schedule: Q04DX002 (sc), vehicle: olive oil, sesame oil, peanut oil 111 % of control

CC1(C)OCC(CO)O1 (stereo unspecified)
inactive: [8] 101 % of control | [1] 105 % of control | dose: 200.0 mg/kg/injection, schedule: Q01DX009 (ip), vehicle: saline with Tween-80 98 % of control | [2] 97 % of control | dose: 400.0 mg/kg/injection, schedule: Q01DX009 (ip), vehicle: saline with Tween-80 104 % of control | [3] 100 % of control

CC(=O)Nc1ccc2oc(=O)ccc2c1
inactive: [1] 98 % of control | [2] 105 % of control | [3] 98 % of control

ClCCCN(CCCCl)c1ccc(C=Nc2cccc(Cl)c2)c(Cl)c1
inactive: [5] 101 % of control | [6] 102 % of control | [7] 95 % of control

CCSC(=O)CC
inactive: [1] 104 % of control | [2] 100 % of control | [3] 95 % of control

CC(C)c1cc(C(C)C)c(S(=O)(=O)Cl)c(C(C)C)c1
inactive: [9] 98 % of control | [10] 95 % of control | [11] 95 % of control | [12] 98 % of control

O=C1C(c2ccccc2)CN1CC1CCCCC1 (stereo unspecified)
inactive: dose: 100.0 mg/kg/injection, schedule: Q01DX001 (ip), vehicle: Klucel (hydroxypropylcellulose) (HPC) 98 % of control | dose: 200.0 mg/kg/injection, schedule: Q01DX001 (ip), vehicle: Klucel (hydroxypropylcellulose) (HPC) 101 % of control | dose: 400.0 mg/kg/injection, schedule: Q01DX001 (ip), vehicle: Klucel (hydroxypropylcellulose) (HPC) 95 % of control

Cc1c(Cl)nc(Cl)nc1Cl
inactive: dose: 8.0 mg/kg/injection, schedule: Q01DX015 (ip), vehicle: carboxymethylcellulose (CMC) 104 % of control | dose: 16.0 mg/kg/injection, schedule: Q01DX015 (ip), vehicle: carboxymethylcellulose (CMC) 98 % of control | dose: 32.0 mg/kg/injection, schedule: Q01DX015 (ip), vehicle: carboxymethylcellulose (CMC) 96 % of control | [9] 101 % of control | dose: 64.0 mg/kg/injection, schedule: Q01DX015 (ip), vehicle: carboxymethylcellulose (CMC) 106 % of control | dose: 75.0 mg/kg/injection, schedule: Q01DX015 (ip), vehicle: carboxymethylcellulose (CMC) 98 % of control | [10] 101 % of control | dose: 150.0 mg/kg/injection, schedule: Q01DX015 (ip), vehicle: carboxymethylcellulose (CMC) 91 % of control | [11] 104 % of control | [12] 104 % of control

O=S(=O)(Cc1ccccc1)C(Br)Br
inactive: dose: 100.0 mg/kg/injection, schedule: Q01DX001 (ip), vehicle: other 106 % of control | dose: 100.0 mg/kg/injection, schedule: Q04DX002 (ip), vehicle: Klucel (hydroxypropylcellulose) (HPC) 100 % of control | dose: 200.0 mg/kg/injection, schedule: Q01DX001 (ip), vehicle: other 101 % of control | dose: 200.0 mg/kg/injection, schedule: Q04DX002 (ip), vehicle: Klucel (hydroxypropylcellulose) (HPC) 97 % of control | dose: 400.0 mg/kg/injection, schedule: Q01DX001 (ip), vehicle: other 101 % of control | dose: 400.0 mg/kg/injection, schedule: Q04DX002 (ip), vehicle: Klucel (hydroxypropylcellulose) (HPC) 103 % of control

C[N+](C)(C)CCS(=O)(=O)c1ccc(Cl)cc1
inactive: dose: 100.0 mg/kg/injection, schedule: Q04DX002 (ip), vehicle: saline 90 % of control

CC(=O)OC1CCCCCCCCC1OC(C)=O (stereo unspecified)
inactive: dose: 100.0 mg/kg/injection, schedule: Q01DX001 (ip), vehicle: carboxymethylcellulose (CMC) 103 % of control | dose: 200.0 mg/kg/injection, schedule: Q01DX001 (ip), vehicle: carboxymethylcellulose (CMC) 98 % of control | dose: 400.0 mg/kg/injection, schedule: Q01DX001 (ip), vehicle: carboxymethylcellulose (CMC) 95 % of control

CN(CC(=O)OCc1ccccc1)C(=O)CNC(=O)OCc1ccccc1 (Cbz-Gly-[Sar]-OBn)
inactive: [1] 95 % of control | [2] 98 % of control | [3] 98 % of control

S=C(NCc1ccccc1)[S][Sb]([S]C(=S)NCc1ccccc1)[c]1ccccc1
inactive: dose: 5.0 mg/kg/injection, schedule: Q01DX001 (ip), vehicle: saline 88 % of control | dose: 10.0 mg/kg/injection, schedule: Q01DX001 (ip), vehicle: saline 109 % of control

CCNC(C)(C)C(SSSC(c1ccc(Cl)cc1)C(C)(C)NCC)c1ccc(Cl)cc1 (stereo unspecified)
inactive: dose: 50.0 mg/kg/injection, schedule: Q01DX009 (ip), vehicle: Klucel (hydroxypropylcellulose) (HPC) 94 % of control | [4] 91 % of control | dose: 100.0 mg/kg/injection, schedule: Q01DX009 (ip), vehicle: other 89 % of control

CN1CCC2CCCCC2C1Cc1ccc(CC2C3CCCCC3CCN2C)cc1 (stereo unspecified)
inactive: dose: 2.5 mg/kg/injection, schedule: Q01DX001 (ip), vehicle: carboxymethylcellulose (CMC) 96 % of control | dose: 5.0 mg/kg/injection, schedule: Q01DX001 (ip), vehicle: carboxymethylcellulose (CMC) 96 % of control

CCCCC[C@H](CN(C)C)[C@H](O)/C=C/c1ccc(Cl)cc1
inactive: dose: 12.5 mg/kg/injection, schedule: Q04DX002 (ip), vehicle: saline 113 % of control | dose: 25.0 mg/kg/injection, schedule: Q04DX002 (ip), vehicle: saline 110 % of control | dose: 50.0 mg/kg/injection, schedule: Q04DX002 (ip), vehicle: saline 102 % of control

COc1ccc(C(C)(C)C#N)cc1
inactive: [9] 102 % of control | [10] 100 % of control | [11] 100 % of control | [12] 97 % of control

CCNc1nc(N)nc(Cl)c1N
inactive: [1] 107 % of control | [2] 100 % of control | [3] 105 % of control

CC1(C)OC2C(COC(=O)Oc3ccccc3)OC(n3cnc4c(=S)nc[nH]c43)C2O1 (stereo unspecified)
inactive: [8] 117 % of control | [5] 100 % of control | [6] 109 % of control
